Reference: publication PMC11530130, “Peripherally restricted PICK1 inhibitor mPD5 ameliorates pain behaviors in murine inflammatory and neuropathic pain models” (JCI Insight, 2024)

Test system: mice, streptozocin (STZ) model of type 1 diabetes
Experiment: STZ model of diabetic neuropathy, von Frey
Format: in vivo, mouse
Protocol: Induction of Diabetic neuropathy (STZ model).
Diabetes was induced by a single i.p. injection of […] streptozocin (STZ) solution (100 μL/10 g, Sigma-Aldrich S0130, batch #WXBB7152V) in male seven-week-old C57BL/6J (Charles River) mice. Glycemia was tested before, and seven days after injection. All injected mice had blood glucose concentration >350 mg/dL from day seven and were used for analgesic testing of the compounds from day 14. One mouse had to be euthanized at seven days post injection. This experiment was performed by Phenotype Expertise, Marseilles, France - Pain and CNS behaviour CRO under supervision of Stéphane Gaillard, PhD (CEO). […]
The skin wound was closed with two medical clips (Michel Suture Clips, 7.5x1.75 mm, Angthos, 12040-01). Post-surgical analgesia included s.c. injection of 5 mg/kg carprofen (Carprosan vet, 50 mg/mL mixed 1:25 in sterile ddH2O, Dechra, Le Vet Beheer B.V., Netherlands, Batch: 050520) right after surgery and the […]
following day. […]
The test battery of the CIBP model was carried out 45 or 90 min after morphine and mPD5 administration respectively to accommodate the peak efficacy […]
Mechanically evoked pain (von Frey test).
Unless otherwise specified, von Frey occurred as described in the following. Animals were habituated to the experimental room for a minimum of 60 min before initiation of the experiment. Mechanical paw withdrawal threshold (PWT) was determined by von Frey measurements of both hind paws. Von Frey filaments ranging from 0.04 to 2 g (g = gram- […]
Filaments in ascending order were applied to the frontocentral plantar surface of the hind paws.
Mice were placed in PVC plastic boxes (11.5 cm x 14 cm) on a wire mesh and allowed minimum 20 min habituation prior of experiment initiation. Each von Frey hair was applied five times with adequate resting periods between each application and number of withdrawals recorded. The withdrawal threshold was determined as the von Frey filament eliciting at least three positive trials out of the five applications in two consecutive filaments. A positive trial was defined as sudden paw withdrawal, flinching and/or paw licking induced by the filament.
For the CIBP model, two habituation sessions were performed on separated days with mice placed in the von Frey equipment for 1-1.5 hours in the presence of the experimenter on day one and random von Frey pocking with the 0.6 g filament on day two. Von Frey monofilaments (North Coast Touch Test, North Coast Medical, Inc.) with target forces of 0.04g, 0.07g, 0.16g, […]
down method” (PWT=10Xf+kδ) starting with the 0.6 g filament. Positive response was defined as; withdrawal, shaking or grooming of paw following a 2-3 second stimulation. In case, of unclear response, stimulus was repeated after 10-15 seconds.
For the STZ model, the mechanical threshold response of the injected mice was measured with […]
injection of test compounds on day 14, mechanical threshold was measured at 1 hour, 2 hours, 4 hours and 6 hours and again on day 15. […]
Thermally evoked pain (Hargreaves test).
A baseline Hargreaves test was performed on day 0 before inflammatory pain was induced as described in section 2.13. In the Hargreaves test, the mouse was placed in a container on a glass table and left to habituate for at least 15 min. Using the Hargreaves apparatus, a heat beam from beneath was directed towards the hind paws of the mouse, and the paw withdrawal time

## CCCCCCCCCCCCCC(=O)N(CCOCCOCCC(=O)N[C@@H](Cc1c[nH]cn1)C(=O)N[C@@H](Cc1c[nH]c2ccccc12)C(=O)N[C@@H](CC(C)C)C(=O)N[C@@H](CCCCN)C(=O)N[C@H](C(=O)O)C(C)C)CCOCCOCCC(=O)N[C@@H](Cc1c[nH]cn1)C(=O)N[C@@H](Cc1c[nH]c2ccccc12)C(=O)N[C@@H](CC(C)C)C(=O)N[C@@H](CCCCN)C(=O)N[C@H](C(=O)O)C(C)C [mPD5, myristoyl-NPEG4-(HWLKV)2]
2 umol/kg, +1h, n = 10
  paw withdrawal threshold, left paw, group mean: 0.44
2 umol/kg, +2h, n = 10
  paw withdrawal threshold, left paw, group mean: 0.37
2 umol/kg, +4h, n = 10
  paw withdrawal threshold, left paw, group mean: 0.37
2 umol/kg, +6h, n = 10
  paw withdrawal threshold, left paw, group mean: 0.25
2 umol/kg, D15, n = 10
  paw withdrawal threshold, left paw, group mean: 0.17
10 umol/kg, +1h, n = 10
  paw withdrawal threshold, left paw, group mean: 0.58
10 umol/kg, +2h, n = 10
  paw withdrawal threshold, left paw, group mean: 0.6
10 umol/kg, +4h, n = 10
  paw withdrawal threshold, left paw, group mean: 0.38
10 umol/kg, +6h, n = 10
  paw withdrawal threshold, left paw, group mean: 0.21
10 umol/kg, D15, n = 10
  paw withdrawal threshold, left paw, group mean: 0.28
Male mice, s.c. 10 μmol/kg
  extension of the effect at the highest dose: extended for another hour
Male mice, s.c. 2 and 10 μmol/kg, the first hour after injection
  effect on mechanical hypersensitivity (PWT): significant relief of mechanical hypersensitivity
